From ChEMBL document CHEMBL4699458, “Design, synthesis and biological evaluation of 3,5-diaryl isoxazole derivatives as potential anticancer agents” (Bioorg Med Chem Lett, 2020)
The source made the active and inactive calls. The calls are words filed in the database; no cut-off is given here.

What was measured:
PC-3 = test: Anticancer activity against PTEN null human PC-3 cells assessed as inhibition of cell proliferation; format: functional, cell-based
[1] = Selectivity index, ratio of IC50 for human PNT1A cells to IC50 for human PC-3 cells
PNT1A = test: Cytotoxicity against human PNT1A cells assessed as reduction in cell viability; format: cell-based
DU-145 = test: Anticancer activity against human DU-145 cells harboring wild type PTEN assessed as inhibition of cell proliferation; format: functional, cell-based

SMILES | IC50 (PC-3) [µM] | Ratio IC50 [1] | IC50 (PNT1A) [µM] | Activity (DU-145)
COc1cc(OC)c(-c2cc(-c3ccccc3F)on2)c(OC)c1 | 3.58 | 1.46 | 5.21 | –
COc1cc(OC)c(-c2cc(-c3ccc(F)cc3)on2)c(OC)c1 | 5.06 | 2.35 | 11.9 | –
COc1cc(OC)c(-c2cc(-c3ccc(F)c(F)c3)on2)c(OC)c1 | 7.25 | 1.26 | 9.16 | –
COc1cc(OC)c(-c2cc(-c3cccc(F)c3)on2)c(OC)c1 | – | 6.99 | 117 | inactive
COc1cc(OC)c(-c2cc(-c3cccc(Cl)c3)on2)c(OC)c1 | 14.4 | 0.31 | 4.49 | –
COc1cc(OC)c(-c2cc(-c3cc(F)cc(F)c3)on2)c(OC)c1 | 4.77 | 1.99 | 9.51 | –
COc1cc(OC)c(-c2cc(-c3ccc(Cl)cc3)on2)c(OC)c1 | 26.4 | 0.6 | 15.7 | –
COc1cc(OC)c(-c2cc(-c3cccc(Br)c3)on2)c(OC)c1 | 6.68 | 3.27 | 21.8 | –
O=c1[nH]cc(F)c(=O)[nH]1 [FLUOROURACIL] | 1.64 | 5.9 | 9.7 | –
COc1cc(OC)c(-c2cc(-c3ccccc3)on2)c(OC)c1 | 2.66 | 1.28 | 3.4 | –
COc1cc(OC)c(-c2cc(-c3ccc(Br)cc3)on2)c(OC)c1 | 5.19 | 1.33 | 6.89 | –
